Test results published in patent US20240293405A1, “(1H-PYRROLO[2,3-B]PYRIDIN-1-YL)PYRIMIDIN-2-YL-AMINO-PHENYL-ACRYLAMIDE INHIBITORS OF EGFR FOR USE IN THE TREATMENT OF BRAIN TUMORS” (Dana-Farber Cancer Institute, Inc., priority 2021, published 2024).
Where two headings read alike, the source gives them in different places.

Key:
[1] = target: PDGFRB (Homo sapiens, UniProt P09619); experiment: Kinase binding constant (Kd)
Procedure: (§1) EGFR amplifications and/or mutations are common in GBM, estimated to occur in over 50% of patients.
(§2) Compound 1 and Compound 2 (major metabolite) were evaluated in a panel of 468 human kinases and disease relevant mutant variants. Compound 1 and Compound 2 bound to few non-mutant kinases at <1% of control. […] While there is some variability between Compound 1 and Compound 2, it is clear that both compounds are very effective at binding to a large panel of mutant kinases. […] Binding constant to wild type EGFR was 4.9 nM.

[2] = target: PDGFRA (Homo sapiens, UniProt P16234); experiment: Kinase binding constant (Kd)
Procedure: as §1, §2

[3] = target: ALK (Homo sapiens, UniProt Q9UM73); experiment: Kinase binding constant (Kd)
Procedure: as §1, §2

[4] = Oral dog 4-week toxicity study with toxicokinetics; type: in vivo, beagle dogs; conditions: for HNSTD: 4-week oral
Procedure: Compound 1 (0, 10, 30, and 100 mg/kg/day) was given orally, once daily by gavage, to male and female beagle dogs (4/sex) for up to 28 days. […] The cause of death in this high-dose male was attributed to myocardial degeneration. This lesion was not observed in any other dog on study. Increases in alkaline phosphatase, globulin, cholesterol, triglycerides and fibrinogen and decreased reticulocyte counts noted in the high-dose group at mid-study returned towards baseline by the end of the study following 11/12 days of recovery. Testicular changes at all doses (seminiferous epithelial vacuolation at 10 and 30 mg/kg and degeneration/atrophy at 100 mg/kg) were not reversible in this short-term study; the reversibility period was not long enough to assess reversibility of testicular changes.
The increases were generally dose-proportional or greater-than dose-proportional on Day 1 and Day 28. Gender difference was not observed. No significant accumulation of Compound 1 or Compound 2 was observed.
Thirty-two beagle dogs (conventional, naive) were divided into four groups. Each group consists of four male and four female. Group 1 beagle dogs were administered vehicle and groups 2-4 beagle dogs were administered Compound 1 at 10 mg/kg, 30 mg/kg, and 100 mg/kg, respectively, by oral gavage once daily for 28 consecutive days (Table 15). […] Cmax (ng/mL) and AUClast (hr*ng/mL) of Compound 1 on day 1 were obtained for groups 2-4 (Table 15).

[5] = tested on: 468 human kinases and disease relevant mutant variants; experiment: Kinase selectivity binding panel (468 kinases); conditions: 468 kinase panel, 1 μM free base
Procedure: as §2

[6] = target: EGFR(L747-E749del, A750P) (Homo sapiens, UniProt P00533, A750P/DEL747-749); experiment: Kinase binding constant (Kd)
Chain of EGFR(L747-E749del, A750P) (P00533 with tags, fused parts or gaps DEL747-749/A750P): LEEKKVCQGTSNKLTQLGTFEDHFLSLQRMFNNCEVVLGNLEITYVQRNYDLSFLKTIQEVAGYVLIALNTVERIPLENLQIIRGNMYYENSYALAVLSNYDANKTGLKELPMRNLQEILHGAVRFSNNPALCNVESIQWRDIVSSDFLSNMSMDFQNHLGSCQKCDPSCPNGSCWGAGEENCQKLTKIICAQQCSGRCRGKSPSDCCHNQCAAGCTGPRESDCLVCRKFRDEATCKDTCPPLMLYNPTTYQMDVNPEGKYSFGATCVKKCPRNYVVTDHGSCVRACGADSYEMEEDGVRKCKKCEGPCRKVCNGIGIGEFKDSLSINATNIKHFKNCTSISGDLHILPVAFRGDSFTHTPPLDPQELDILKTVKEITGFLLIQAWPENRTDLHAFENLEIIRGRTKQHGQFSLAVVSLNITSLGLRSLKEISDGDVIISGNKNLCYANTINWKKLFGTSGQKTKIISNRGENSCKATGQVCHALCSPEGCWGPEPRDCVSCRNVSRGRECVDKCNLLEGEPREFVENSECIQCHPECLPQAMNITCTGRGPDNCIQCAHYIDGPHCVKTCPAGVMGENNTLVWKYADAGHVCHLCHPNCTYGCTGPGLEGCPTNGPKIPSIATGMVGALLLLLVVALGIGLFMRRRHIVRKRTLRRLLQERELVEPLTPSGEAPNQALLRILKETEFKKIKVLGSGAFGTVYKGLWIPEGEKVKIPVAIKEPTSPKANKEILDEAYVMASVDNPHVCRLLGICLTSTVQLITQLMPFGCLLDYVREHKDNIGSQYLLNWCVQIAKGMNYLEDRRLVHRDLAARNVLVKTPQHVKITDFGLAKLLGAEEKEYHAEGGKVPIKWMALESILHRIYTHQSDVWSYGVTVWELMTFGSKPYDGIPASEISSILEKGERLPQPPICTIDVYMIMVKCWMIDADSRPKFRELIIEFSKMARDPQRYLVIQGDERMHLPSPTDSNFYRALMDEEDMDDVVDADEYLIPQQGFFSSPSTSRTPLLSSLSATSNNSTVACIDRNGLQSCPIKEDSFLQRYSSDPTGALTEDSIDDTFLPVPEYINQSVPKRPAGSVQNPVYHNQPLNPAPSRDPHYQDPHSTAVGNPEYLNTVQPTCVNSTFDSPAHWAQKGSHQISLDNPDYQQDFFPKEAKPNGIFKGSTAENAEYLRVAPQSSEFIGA
Description: as §1

[7] = target: ERBB2 (Homo sapiens, UniProt P04626); experiment: Kinase binding constant (Kd)
Chain of ERBB2 (P04626 23-1255): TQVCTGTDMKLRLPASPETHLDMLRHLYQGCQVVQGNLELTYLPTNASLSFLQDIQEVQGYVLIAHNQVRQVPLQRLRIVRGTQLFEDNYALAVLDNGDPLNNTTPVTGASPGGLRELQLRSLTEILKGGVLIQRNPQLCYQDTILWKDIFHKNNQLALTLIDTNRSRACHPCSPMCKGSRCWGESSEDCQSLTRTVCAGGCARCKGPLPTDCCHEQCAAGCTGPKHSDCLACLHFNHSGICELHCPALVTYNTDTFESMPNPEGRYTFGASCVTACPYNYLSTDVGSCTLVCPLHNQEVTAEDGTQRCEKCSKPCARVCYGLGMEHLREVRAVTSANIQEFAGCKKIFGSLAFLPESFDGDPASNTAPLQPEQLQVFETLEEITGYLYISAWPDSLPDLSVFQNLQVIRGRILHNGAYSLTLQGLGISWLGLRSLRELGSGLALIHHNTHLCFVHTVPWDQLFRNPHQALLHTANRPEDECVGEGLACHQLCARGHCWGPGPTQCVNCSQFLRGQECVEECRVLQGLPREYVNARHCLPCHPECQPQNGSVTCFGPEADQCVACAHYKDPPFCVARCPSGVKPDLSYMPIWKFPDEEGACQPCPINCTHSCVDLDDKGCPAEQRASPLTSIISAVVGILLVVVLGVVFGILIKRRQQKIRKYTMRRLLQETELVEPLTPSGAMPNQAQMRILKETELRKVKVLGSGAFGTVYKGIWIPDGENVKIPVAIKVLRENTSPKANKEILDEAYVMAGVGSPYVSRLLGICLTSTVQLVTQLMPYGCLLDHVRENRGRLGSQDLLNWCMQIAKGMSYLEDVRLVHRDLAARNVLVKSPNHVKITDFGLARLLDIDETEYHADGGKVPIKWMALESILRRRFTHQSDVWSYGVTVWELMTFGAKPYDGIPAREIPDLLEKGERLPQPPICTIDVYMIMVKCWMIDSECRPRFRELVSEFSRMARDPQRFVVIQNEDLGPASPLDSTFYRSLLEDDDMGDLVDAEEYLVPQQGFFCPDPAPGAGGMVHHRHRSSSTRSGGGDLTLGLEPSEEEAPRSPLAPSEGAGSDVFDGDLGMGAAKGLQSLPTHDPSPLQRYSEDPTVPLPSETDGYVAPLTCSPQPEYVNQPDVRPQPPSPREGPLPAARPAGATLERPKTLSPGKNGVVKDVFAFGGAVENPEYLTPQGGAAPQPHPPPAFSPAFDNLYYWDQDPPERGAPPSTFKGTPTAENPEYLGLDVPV
Description: as §1

[8] = target: EGFR(E746-A750del) (Homo sapiens, UniProt P00533, DEL746-750); experiment: Kinase binding constant (Kd)
Description: as §1

[9] = target: EGFR(L747-T751del,Sins) (Homo sapiens, UniProt P00533, DELINS747-751S); experiment: Kinase binding constant (Kd)
Description: as §1

[10] = target: EGFR(T790M) (Homo sapiens, UniProt P00533, T790M); experiment: Kinase binding constant (Kd)
Description: as §1

[11] = target: EGFR(G719C) (Homo sapiens, UniProt P00533, G719C); experiment: Kinase binding constant (Kd)
Chain of EGFR(G719C) (P00533 25-1210 G719C): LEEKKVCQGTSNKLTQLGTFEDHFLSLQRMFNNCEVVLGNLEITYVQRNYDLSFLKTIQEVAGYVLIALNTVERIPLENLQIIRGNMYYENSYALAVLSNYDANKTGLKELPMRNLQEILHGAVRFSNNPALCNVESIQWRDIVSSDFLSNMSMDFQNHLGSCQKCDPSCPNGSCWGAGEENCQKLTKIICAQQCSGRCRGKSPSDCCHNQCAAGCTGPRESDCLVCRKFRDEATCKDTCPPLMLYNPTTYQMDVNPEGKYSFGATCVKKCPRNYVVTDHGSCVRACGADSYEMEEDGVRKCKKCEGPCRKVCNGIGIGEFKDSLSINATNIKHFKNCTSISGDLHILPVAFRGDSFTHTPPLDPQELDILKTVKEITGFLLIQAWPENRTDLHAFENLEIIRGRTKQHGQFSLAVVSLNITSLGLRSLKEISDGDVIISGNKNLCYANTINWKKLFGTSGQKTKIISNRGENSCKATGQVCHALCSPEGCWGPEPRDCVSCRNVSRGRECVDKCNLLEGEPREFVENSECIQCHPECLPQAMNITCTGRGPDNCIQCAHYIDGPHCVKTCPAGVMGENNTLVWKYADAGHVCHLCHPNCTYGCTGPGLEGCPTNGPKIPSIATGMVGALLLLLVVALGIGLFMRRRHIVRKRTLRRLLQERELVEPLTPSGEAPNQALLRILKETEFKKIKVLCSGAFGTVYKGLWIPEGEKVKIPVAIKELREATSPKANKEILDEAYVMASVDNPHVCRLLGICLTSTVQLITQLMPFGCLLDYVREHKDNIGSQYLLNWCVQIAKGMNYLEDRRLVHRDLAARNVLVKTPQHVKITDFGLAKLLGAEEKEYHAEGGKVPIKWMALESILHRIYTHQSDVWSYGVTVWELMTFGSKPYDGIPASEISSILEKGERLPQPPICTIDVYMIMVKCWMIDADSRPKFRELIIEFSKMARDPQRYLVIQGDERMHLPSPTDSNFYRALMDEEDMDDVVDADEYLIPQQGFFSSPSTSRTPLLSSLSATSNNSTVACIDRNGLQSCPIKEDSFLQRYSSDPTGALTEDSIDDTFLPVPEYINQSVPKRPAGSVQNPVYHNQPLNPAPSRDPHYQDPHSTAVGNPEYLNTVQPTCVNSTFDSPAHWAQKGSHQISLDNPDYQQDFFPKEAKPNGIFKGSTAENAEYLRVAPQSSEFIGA
Description: as §1

[12] = target: EGFR (Homo sapiens, UniProt P00533); experiment: Kinase binding constant (Kd)
Chain of EGFR (P00533 25-1210): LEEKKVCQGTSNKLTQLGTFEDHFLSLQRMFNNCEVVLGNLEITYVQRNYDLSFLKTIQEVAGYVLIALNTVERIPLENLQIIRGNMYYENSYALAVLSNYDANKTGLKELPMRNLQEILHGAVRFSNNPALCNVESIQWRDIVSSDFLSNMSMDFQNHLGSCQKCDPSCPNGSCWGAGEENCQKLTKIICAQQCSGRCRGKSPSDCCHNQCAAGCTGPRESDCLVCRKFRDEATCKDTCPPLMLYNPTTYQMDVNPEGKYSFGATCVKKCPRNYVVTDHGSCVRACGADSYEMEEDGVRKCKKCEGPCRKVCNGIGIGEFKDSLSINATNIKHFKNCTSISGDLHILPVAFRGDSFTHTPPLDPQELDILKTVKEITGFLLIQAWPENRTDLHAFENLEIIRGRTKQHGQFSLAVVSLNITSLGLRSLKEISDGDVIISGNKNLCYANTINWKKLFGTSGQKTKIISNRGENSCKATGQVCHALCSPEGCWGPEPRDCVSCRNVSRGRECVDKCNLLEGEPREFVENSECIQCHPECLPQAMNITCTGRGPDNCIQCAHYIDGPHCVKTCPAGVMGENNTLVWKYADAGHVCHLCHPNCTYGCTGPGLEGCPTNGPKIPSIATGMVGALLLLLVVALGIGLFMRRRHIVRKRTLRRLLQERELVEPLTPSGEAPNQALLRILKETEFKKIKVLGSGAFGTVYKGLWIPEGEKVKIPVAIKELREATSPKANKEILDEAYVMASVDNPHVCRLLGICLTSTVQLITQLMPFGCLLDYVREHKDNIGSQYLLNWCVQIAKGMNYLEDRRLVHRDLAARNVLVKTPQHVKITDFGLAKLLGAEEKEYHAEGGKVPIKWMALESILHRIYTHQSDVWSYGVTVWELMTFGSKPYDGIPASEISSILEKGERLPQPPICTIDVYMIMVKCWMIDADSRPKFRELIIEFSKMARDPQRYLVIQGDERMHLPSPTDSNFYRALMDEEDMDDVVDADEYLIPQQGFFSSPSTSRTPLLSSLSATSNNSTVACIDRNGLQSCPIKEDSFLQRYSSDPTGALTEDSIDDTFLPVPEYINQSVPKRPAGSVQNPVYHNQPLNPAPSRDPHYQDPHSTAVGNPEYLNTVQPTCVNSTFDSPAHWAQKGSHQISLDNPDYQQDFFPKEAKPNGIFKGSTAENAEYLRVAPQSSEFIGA
Description: as §1

[13] = target: EGFR(L747-S752del, P753S) (Homo sapiens, UniProt P00533, DEL747-752/P753S); experiment: Kinase binding constant (Kd)
Description: as §1

[14] = target: EGFR(L858R) (Homo sapiens, UniProt P00533, L858R); experiment: Kinase binding constant (Kd)
Description: as §1

[15] = target: EGFR(S752-I759del) (Homo sapiens, UniProt P00533, DEL752-759); experiment: Kinase binding constant (Kd)
Description: as §1

[16] = target: EGFR(L858R,T790M) (Homo sapiens, UniProt P00533, L858R/T790M); experiment: Kinase binding constant (Kd)
Description: as §1

[17] = target: EGFR(G719S) (Homo sapiens, UniProt P00533, G719S); experiment: Kinase binding constant (Kd)
Description: as §1

[18] = target: ERBB4 (Homo sapiens, UniProt Q15303); experiment: Kinase binding constant (Kd)
Description: as §1

[19] = Oral rat dose-range toxicity study; type: in vivo
Procedure: Male and female Sprague-Dawley rats were given Compound 1 orally by gavage either once (30, 100, 500, 1000 mg/kg/day) or once daily for up to 14 days (30, 100, 300 mg/kg/day). […] […]; this group was terminated on Day 9. […] The STD10 was estimated to be 100 mg/kg/day in this study.

[20] = Brain and plasma exposure after single oral dose; type: in vivo, Sprague Dawley rats; conditions: own data, oral dosing in rats
Description: Genfitinib concentrations were quantitated by LC-MS/MS from brain and plasma from Group 1 animals.

[21] = both sexes, beagle, in vivo, dog, day 1, oral gavage

**Q.** For `C=CC(=O)Nc1cc(Nc2nccc(-n3ccc4cccnc43)n2)c(OC)cc1N(C)CCN(C)C` [Compound 1, N-(5-((4-(1H-pyrrolo[2,3-b]pyridin-1-yl)pyrimidin-2-yl)amino)-2-((2-(dimethylamino)ethyl)(methyl)amino)-4-methoxyphenyl)acrylamide], which Kd [1] is on record?
**A.** 5200 nM

**Q.** What about the Kd [2] of the same compound?
**A.** 1500 nM

**Q.** What about the Kd [3] of the same compound?
**A.** 250 nM

**Q.** And the mortality ([4]; 100 mg/kg/day, attributed to myocardial degeneration)?
**A.** one male was found dead on Day 13

**Q.** What about the Cmax ([4]; beagle, in vivo, po, dog Day 1, 10 mg/kg/day, Female) of the same compound?
**A.** 142 ng/mL

**Q.** What about the AUC(0-t) ([4]; beagle, in vivo, po, dog Day 1, 10 mg/kg/day, Female, read-out: AUClast) of the same compound?
**A.** 2060 ng·h/mL

**Q.** And the Cmax ([4]; beagle, in vivo, po, dog Day 1, 10 mg/kg/day, Male)?
**A.** 166 ng/mL

**Q.** And the AUC(0-t) ([4]; beagle, in vivo, po, dog Day 1, 10 mg/kg/day, Male, read-out: AUClast)?
**A.** 1650 ng·h/mL

**Q.** And the Cmax ([4]; beagle, in vivo, po, dog Day 1, 30 mg/kg/day, Female)?
**A.** 170 ng/mL

**Q.** What about the AUC(0-t) ([4]; beagle, in vivo, po, dog Day 1, 30 mg/kg/day, Female, read-out: AUClast) of the same compound?
**A.** 1960 ng·h/mL

**Q.** What about the Cmax ([4]; beagle, in vivo, po, dog Day 1, 30 mg/kg/day, Male) of the same compound?
**A.** 317 ng/mL

**Q.** And the AUC(0-t) ([4]; beagle, in vivo, po, dog Day 1, 30 mg/kg/day, Male, read-out: AUClast)?
**A.** 3790 ng·h/mL

**Q.** And the Cmax ([4]; beagle, in vivo, po, dog Day 1, 100 mg/kg/day, Female)?
**A.** 293 ng/mL

**Q.** What about the AUC(0-t) ([4]; beagle, in vivo, po, dog Day 1, 100 mg/kg/day, Female, read-out: AUClast) of the same compound?
**A.** 4060 ng·h/mL

**Q.** And the Cmax ([4]; beagle, in vivo, po, dog Day 1, 100 mg/kg/day, Male)?
**A.** 367 ng/mL

**Q.** And the AUC(0-t) ([4]; beagle, in vivo, po, dog Day 1, 100 mg/kg/day, Male, read-out: AUClast)?
**A.** 5190 ng·h/mL

**Q.** And the NOAEL ([4]; both sexes, beagle, in vivo, oral, 4-week Dog toxicology)?
**A.** 10 mg/kg

**Q.** And the Tmax [4, 21]?
**A.** 4 h

**Q.** And the half-life [4, 21]?
**A.** 8 h

**Q.** And the “NOEL for myocardial risk” value ([4]; dog)?
**A.** 30 mg/kg

**Q.** What about the HNSTD ([4]; dog) of the same compound?
**A.** 30 mg/kg

**Q.** And the HNSTD ([4]; dog, estimated)?
**A.** 30 mg/kg/day

**Q.** And the Cmax ([4]; female, beagle, in vivo, dog Day 28 mean, 10 mg/kg Compound 1 PO, F, Compound 2 as metabolite)?
**A.** 867 ng/mL

**Q.** And the AUC(0-t) ([4]; female, beagle, in vivo, dog Day 28 mean, 10 mg/kg Compound 1 PO, F, Compound 2 as metabolite, read-out: AUC0-24)?
**A.** 6540 ng·h/mL

**Q.** What about the Cmax ([4]; female, beagle, in vivo, dog Day 28 mean, 30 mg/kg Compound 1 PO, F, Compound 2 as metabolite) of the same compound?
**A.** 508 ng/mL

**Q.** What about the AUC(0-t) ([4]; female, beagle, in vivo, dog Day 28 mean, 30 mg/kg Compound 1 PO, F, Compound 2 as metabolite, read-out: AUC0-24) of the same compound?
**A.** 3490 ng·h/mL

**Q.** What about the “human equivalent dose (HED) of the NOEL for myocardial risk” value ([4]; from dog NOEL 30 mg/kg) of the same compound?
**A.** 15 mg/kg

**Q.** And the Cmax ([4]; male, beagle, in vivo, dog Day 28 mean, 10 mg/kg Compound 1 PO, M, Compound 2 as metabolite)?
**A.** 578 ng/mL

**Q.** What about the AUC(0-t) ([4]; male, beagle, in vivo, dog Day 28 mean, 10 mg/kg Compound 1 PO, M, Compound 2 as metabolite, read-out: AUC0-24) of the same compound?
**A.** 3880 ng·h/mL

**Q.** And the Cmax ([4]; male, beagle, in vivo, dog Day 28 mean, 30 mg/kg Compound 1 PO, M, Compound 2 as metabolite)?
**A.** 974 ng/mL

**Q.** And the AUC(0-t) ([4]; male, beagle, in vivo, dog Day 28 mean, 30 mg/kg Compound 1 PO, M, Compound 2 as metabolite, read-out: AUC0-24)?
**A.** 7180 ng·h/mL

**Q.** What about the “targeted non-mutant kinases (bound at <1% of control)” value [5] of the same compound?
**A.** MAST1, PAK4, PDGFRB and ULK3

**Q.** What about the Kd [6] of the same compound?
**A.** 0.97 nM

**Q.** And the Kd [7]?
**A.** 11 nM

**Q.** What about the Kd [8] of the same compound?
**A.** 0.7 nM

**Q.** What about the Kd [9] of the same compound?
**A.** 2 nM

**Q.** What about the Kd [10] of the same compound?
**A.** 0.15 nM

**Q.** What about the Kd [11] of the same compound?
**A.** 2.2 nM

**Q.** What about the “activity against wild-type EGFR” value [12] of the same compound?
**A.** little activity

**Q.** What about the Kd ([12]; EGFR wild type) of the same compound?
**A.** 4.9 nM

**Q.** What about the Kd [13] of the same compound?
**A.** 3.1 nM

**Q.** And the Kd [14]?
**A.** 4.6 nM

**Q.** What about the Kd [15] of the same compound?
**A.** 2.9 nM

**Q.** What about the Kd [16] of the same compound?
**A.** 0.11 nM

**Q.** What about the Kd [17] of the same compound?
**A.** 1.7 nM

**Q.** What about the Kd [18] of the same compound?
**A.** 11 nM

**Q.** What about the “tolerability of a single oral dose” value ([19]; 30 to 1000 mg/kg) of the same compound?
**A.** well tolerated

**Q.** And the “toxicity at 30 mg/kg/day” value ([19]; 14 days)?
**A.** No significant toxicity

**Q.** And the STD10 ([19]; up to 14 days oral, estimated)?
**A.** 100 mg/kg/day

**Q.** And the “Brain Penetration (% of B/P ratio in preclinical model)” value [20]?
**A.** 2830% (oral)
